Read-outs that look alike come from different tables or passages of the source.
Experiments:
[1] = Pharmacokinetic testing, non-compartmental analysis of plasma concentrations; format: in vivo, human
Description: NONMEM version 7.2, R, PDxPOP® 5, Xpose, and Phoenix WinNonlin was used for the pharmacokinetic analysis.
Pharmacokinetic analysis was performed on Fontan patients receiving udenafil. […] Plasma concentrations were determined at various time points and non-compartmental analysis was performed in patients and stratified by dosing regimens.

ED patients = conditions: 50 mg or 75 mg once daily for 12 wk; cited from earlier work
[2] = cited from earlier work
[3] = system: adolescents with single ventricle physiology after Fontan palliation; format: in vivo, human
Description: A Phase I/II dose escalation trial of Udenafil in adolescents with single ventricle physiology after Fontan palliation was conducted. […] The 36 subjects enrolled in the trial were comprised of 6 cohorts, as described in Table 1. The goals for this trial were to assess the safety of udenafil at multiple dose levels over a five-day period, the pharmacokinetic profile of udenafil in adolescents with Fontan physiology, and the short-term effect of udenafil on pharmacodynamic measures of exercise capacity, ventricular performance, and vascular function. Multiple doses of udenafil or a pharmaceutically acceptable salt thereof were administered to male and female Fontan patients who are 14-18 years of age. Inclusion Criteria for the trial were: • Males and females with Fontan physiology who are 14-18 years of age. • Willingness to return to center to complete blood draws and exercise tests as described in the study protocol. • Patients must agree to abstain from alcohol, caffeinated beverages, and grapefruit juice for the duration of the trial. • Informed assent from subject and informed consent from parent/legal guardian as appropriate. […] The purpose of this example was to describe and evaluate the safety of the udenafil compositions administered in the study described in Example 1. Tables 3-6 present numbers of subjects reporting at least one AE; data are presented by treatment group. The counts are presented by AE category (Table 3) and by preferred term (Table 6). Tables 3-6 report all AEs by category (Table 3), serious AEs (Table 4), non-serious AEs (Table 5), and all AEs by preferred term (Table 6). […] Tables 9-12 present AEs by preferred term (similar to Table 6), but additionally report the number of subjects with an AE and the number of AEs (Table 9), the number of AE events/subjects grouped by treatment group and by related (including possibly or probably) vs. not related to the study drug (Table 10), mild vs. moderate/severe (Table 11), and expected vs. unexpected AEs (Table 12).

clinical = conditions: human, in vivo
Description: The population PK analysis was performed using a non-linear mixed effects modeling approach. This approach estimates the typical value of parameters and their variances. It was assumed subjects were at steady state (SS): at a time (t) after dose (D) given at time tD after repeated administration of dose D given at interval τ (t≥tD) as PK samples/udenafil concentrations were taken on study day 6.
As only the drug administration at Day 6 was supplied, it is expected that the subjects have taken the drug at regular intervals at home; due to this a steady state flag will be tested to account for the doses which are not available. As stated, it is assumed steady state has been reached by Day 6, as previous studies of udenafil have stated that during multiple dosing, steady state is reached in 5 days, with apparently little additional accumulation occurring after dosing for 7 days. If there were missed doses during the study period prior to the PK sampling, this can affect the ability to determine whether steady state could be assumed or not for the PK profile. If two or more additional drug administration dates and times were available prior to the visit where the PK samples were taken, then a much better dosing profile could be used for analysis.
One- and two-compartment models were explored (based on literature and available data). The equation for the Input model for the drug described oral absorption. For the one-compartment model, the following equation may apply to the model:
The robustness of the final model was assessed in PDxPOP® 5 by bootstrap re-sampling (n=1000). Values obtained with the bootstrap (based on all runs with successful minimization) were compared to the parameter estimates from the final model. To evaluate the accuracy of the model predictions, normalized prediction distribution errors (NPDE) was performed.
One- and two-compartment models with oral absorption input were evaluated using initial estimates obtained from the literature as described above, and were explored to determine the potential structure of the model. The models were evaluated during the model building process by using objective function value, level of statistical significance, goodness of fit plots, and standard error.
The only covariate available for analysis was current body weight. Weight was tested as a fixed effect on typical values for clearance and volume of distribution (e.g., weight has a “fixed effect” on clearance). Median weight in the dataset was 65.3 kg. […]
During the model building process, a number of residual error models were evaluated. […]
Bootstrap re-sampling was undertaken to compare the parameter estimates from the final model with those determined following 1000 bootstrap runs. […]

[4] = 87.5 mg q12 h and 125 mg q24 h cohorts compared to 37.5 mg q12 h or q24 h cohorts

## CCCOc1ccc(S(=O)(=O)NCCC2CCCN2C)cc1-c1nc2c(CCC)nn(C)c2c(=O)[nH]1 (stereo not shown) [udenafil]
[1]; [4]
  AUCτ: significantly increased
  Cmax: significantly increased
[1]; 87.5 mg q12 h cohort among all regimens tested
  AUC0-24: highest
[1]; 87.5 mg q12 h cohort compared to its q24 h counterpart
  Cmax: increased
[1]; 125 mg q24 h cohort compared to 37.5 mg q24 h cohort
  AUC0-24: significantly increased
[1]; among all 5 tested dosing regimens
  ke, T1/2, or Tmax: no statistically significant difference
[1]; among dosing regimens, except between 37.5 mg q24 h and 87.5 mg q12 h
  CL/F or V/F: No significant difference
ED patients
  erectile function: significantly improved
[2]; in vivo
  T1/2: 11 to 13 h
  Tmax: 1.0 to 1.5 h
  half-life: 7.3 to 12.1 h
[2]; multiple dosing, previous studies
  time to steady state: 5 days
[3]; 37.5 mg daily
  AE category: Musculoskeletal/skin: 1 (17%) n (%)
[3]; 37.5 mg twice daily
  AE category: Musculoskeletal/skin: 1 (17%) n (%)
[3]; 87.5 mg daily
  AE category: Musculoskeletal/skin: 1 (17%) n (%)
[3]; 87.5 mg twice daily
  AE category: Musculoskeletal/skin: 2 (33%) n (%)
[3]; 125 mg daily
  AE category: Musculoskeletal/skin: 2 (33%) n (%)
[3]; both, human, in vivo, 5 day
  subjects who had expected adverse events: 27
  subjects who had unexpected adverse events: 18
[3]; both, human, in vivo, 5 days
  Subjects with adverse events possibly related to the study drug: 21 subjects
  Subjects with adverse events probably related to the study drug: 11 subjects
  Subjects with adverse events related to the study drug: none
  Subjects with adverse events unrelated to the study drug: 17 subjects
  subjects who had a severe adverse event: 1
  subjects who had mild adverse events: 27
  subjects who had moderate adverse events: 13
[3]; in vivo
  Serious adverse events: No serious AEs were reported
clinical
  Vd/F: 74 L
  apparent clearance (CL/F/70 kg): 36 L/h
  inter-compartmental clearance (Q/F): 21.1 L/h
  peripheral volume of distribution (V3/F): 181 L

Source: patent US10653698B2, “Methods of improving myocardial performance in Fontan patients using udenafil compositions” (priority 2014, dated 2020)
